This note sets out measurements from patent publication US20250144069A1, “BILOBALIDE DERIVATIVE COMPOUNDS FOR TREATING NEUROLOGICAL DISEASES AND CANCERS” (The Chinese University of Hong Kong, priority 2023, published 2025).

Holding throughout (assay type): cell-based, human
Test [1] is described as follows: Single-dose CCK-8 cell viability screening (adherent cells). Particulars: Homo sapiens, average of A549 and Jurkat % viability, 50 uM, 48 h. On the procedure: (§1) In this example, the anti-cancer properties of the BB analogues described in Table 1d were evaluated. Single-dose screening approach is used for initial testing to assess the cytotoxic effect of the BB analogues (also referred to as ‘BB compounds’) on Jurkat cells (human T cell leukaemia cells) and A549 cells (human lung cancer cells).
(§2) Method for Adherent Cells (A549 Cells)
(§3) In this example, 5000 cells/100 uL were seeded in 96-well plates and incubate at 37° C.+5% CO2 overnight. Media were replaced with 100 uL of 50 uM compound per well in 6 replicates. The following controls were prepared.
(§4) Blank control: 100 uL 0.1% DMSO in media with no cells per well.
(§5) Positive control: 100 uL of 10 uM 5-flurouracil per well.
(§6) Negative control: 100 uL of 0.1% DMSO in media per well.
(§7) Each 96-well plate included 7 compounds and the complete set of controls (in 6 replicates).
(§8) Cells were incubated at 37° C.+5% CO2 for 46 hours. 10 uL of CCK8 solution was added to each well. Cells were then incubated at 37° C.+5% CO2 for 2 hours. Absorbance at 450 nm was measured using a multiplate reader.
(§9) Viability was calculated using the equation: […]
(§10) The benchmark in Table 2 was used to define the activities of each compound.

Another test concerns A549 cells. The description is as above. Particulars: Homo sapiens, read-out: % Viability (50 uM, 48 h) A549. As for the experimental part:
as §1, §2, §3, §4, §5, §6, §7, §8, §9, §10

For the next test, the system named is Jurkat cells. The test can be described thus: Single-dose CCK-8 cell viability screening (suspension cells). As to conditions: Homo sapiens, 48 h. As for the experimental part:
as §1
Method for Suspension Cells (Jurkat Cells)
5000 cells/90 uL were seeded in 96-well plates. 10 uL of 500 uM compound (10×) was added to each well in 6 replicates. The following controls were prepared.
Blank control: 10 uL 1% DMSO in media with no cells per well.
Positive control: 10 uL of 100 uM 5-flurouracil (10×) per well.
Negative control: 10 uL of 1% DMSO in media (10×) per well.
Each 96-well plate included 7 BB analogues and the complete set of controls (in 6 replicates).
as §8, §9, §10

Where [2] appears, read: Jurkat, read-out: % Viability (50 uM, 48 h) Jurkat.
Setting [3] is: A549, 48 h, A549 cells, 50 uM, 48 h, CCK-8.
Where [4] appears, read: Jurkat, Jurkat cells, 50 uM, CCK-8, read-out: % Viability (50 uM, 48 h) Jurkat.

Read-outs that look alike come from different tables or passages of the source.

Consider `C=C(C)[C@@]1(C)C[C@@H]2OC(=O)C[C@@]23C(=O)O[C@@H]2NC(=O)[C@H](O)[C@]213` [XBB-013], for which the viability at 50 µM in test [1] turned out to be 104%; with A549 cells (A549, 48 h) it was 100%; with Jurkat cells (setting [2]), 107%.

Regarding `CC(C)(C)[C@]1(O)C[C@@H]2OC(=O)C[C@@]23C(=O)O[C@@H]2N(c4cccc5c4OCO5)C(=O)[C@H](OC(=O)c4ccccc4)[C@]213` [XBB-068], the viability at 50 µM in test [1] (A549, 48 h) was 97.5%; in the test with A549 cells (setting [3]) it was 93.6%; with Jurkat cells (setting [4]), 101%.

As to `CC(C)(C)[C@]1(O)C[C@@H]2OC(=O)C[C@@]23C(=O)O[C@@H]2N(CC4CCC4)C(=O)[C@H](OC(=O)c4ccccc4)[C@]213` [DW184, (3aS,5aS,8R,8aS,9R,10aS)-9-(tert-butyl)-6-(cyclobutylmethyl)-9-hydroxy-2,4,7-trioxooctahydro-4H,9H-furo [3″,2″:2′,3′]cyclopenta [1′,2′:3,4]furo [2,3-b]pyrrol-8-yl benzoate], the viability at 50 µM in test [1] (A549, 48 h) was 81.1%; in the test with A549 cells (setting [3]) it was 93.5%; in the test on Jurkat cells (setting [4]), 68.7%.

For `CC(C)(C)[C@]1(O)C[C@@H]2OC(=O)C[C@@]23C(=O)O[C@@H]2N(C[C@H]4CCCO4)C(=O)[C@H](OC(=O)c4ccccc4)[C@]213` [P-5, (3aS,5aS,8R,8aS,9R,10aS)-9-(tert-butyl)-9-hydroxy-2,4,7-trioxo-6-(((R)-tetrahydrofuran-2-yl)methyl) octahydro-4H,9H-furo [3″,2″:2′,3′]cyclopenta [1′,2′:3,4]furo[2,3-b]pyrrol-8-yl benzoate], the viability at 50 µM in test [1] (A549, 48 h) worked out at 87.2%; in the test on A549 cells (setting [3]) it was 98.7%; in the test on Jurkat cells (setting [4]), 75.7%.

On to `CC(C)(C)OC(=O)N1CCC(CCCN2C(=O)[C@H](OC(=O)c3ccccc3)[C@@]34[C@@H]2OC(=O)[C@@]32CC(=O)O[C@H]2C[C@@]4(O)C(C)(C)C)CC1` [XBB-025], for which the viability at 50 µM in test [1] (A549, 48 h) came out at 91.7%; with A549 cells (setting [3]), 100%; in the test with Jurkat cells (setting [4]), 83.3%.

Consider `CC(C)(C)[C@]1(O)C[C@@H]2OC(=O)C[C@@]23C(=O)O[C@@H]2N(c4ccc5ccccc5c4)C(=O)[C@H](OC(=O)c4ccccc4)[C@]213` [JW094, (3aS,5aS,8R,9R,10aS)-9-(tert-butyl)-9-hydroxy-6-(naphthalen-2-yl)-2,4,7-trioxodecahydrofuro [3″,2″:2′,3′]cyclopenta [1′,2′:3,4]furo [2,3-b]pyrrol-8-yl benzoate], for which the viability at 50 µM in test [1] (A549, 48 h) turned out to be 76.7%; in the test with A549 cells (setting [3]), 76.5%; with Jurkat cells (setting [4]), 76.9%.

On to `CC(=O)Nc1ccc(N2C(=O)[C@H](OC(=O)c3ccccc3)[C@@]34[C@@H]2OC(=O)[C@@]32CC(=O)O[C@H]2C[C@@]4(O)C(C)(C)C)cc1` [XBB-035, (3aS,5aS,8R,8aS,9R,10aS)-6-(4-acetamidophenyl)-9-(tert-butyl)-9-hydroxy-2,4,7-trioxooctahydro-4H,9H-furo [3″,2″:2′,3′]cyclopenta [1′,2′:3,4]furo[2,3-b]pyrrol-8-yl benzoate], for which the viability at 50 µM amounted to 76.9% in test [1] (A549, 48 h); 66.9% in the test on A549 cells (setting [3]); 87% in the test on Jurkat cells (setting [4]).

Take `CC(C)(C)OC(=O)N1CCC(CCN2C(=O)[C@H](OC(=O)c3ccccc3)[C@@]34[C@@H]2OC(=O)[C@@]32CC(=O)O[C@H]2C[C@@]4(O)C(C)(C)C)CC1` [XBB-023, tert-butyl 4-(2-((3aS,5aS,8R,8aS,9R,10aS)-8-(benzoyloxy)-9-(tert-butyl)-9-hydroxy-2,4,7-trioxohexahydro-4H,9H-furo[3″,2″:2′,3′]cyclopenta[1′,2′:3,4]furo[2,3-b]pyrrol-6(5aH)-yl)ethyl)piperidine-1-carboxylate]: the viability at 50 µM in test [1] (A549, 48 h) is 71.7%; in the test with A549 cells (setting [3]), 72.1%; with Jurkat cells (setting [4]), 71.3%.

Take `Cc1ccccc1N1C(=O)[C@H](OC(=O)c2ccccc2)[C@@]23[C@@H]1OC(=O)[C@@]21CC(=O)O[C@H]1C[C@@]3(O)C(C)(C)C` [P-34, (3aS,5aS,8R,9R,10aS)-9-(tert-butyl)-9-hydroxy-2,4,7-trioxo-6-(2-methylphenyl)octahydro-4H,9H-furo [3″,2″:2′,3′]cyclopenta [1′,2′:3,4]furo [2,3-b]pyrrol-8-yl benzoate]: the viability at 50 µM is 77% in test [1] (A549, 48 h); 80.2% in the test with A549 cells (setting [3]); 73.8% with Jurkat cells (setting [4]).

Consider `CC(C)(C)[C@]1(O)C[C@@H]2OC(=O)C[C@@]23C(=O)O[C@@H]2N(c4cccc(C(F)(F)F)c4)C(=O)[C@H](OC(=O)c4ccccc4)[C@]213` [JW100, (3aS,5aS,8R,9R,10aS)-9-(tert-butyl)-9-hydroxy-2,4,7-trioxo-6-(3-(trifluoromethyl)phenyl)octahydro-4H,9H-furo [3″,2″:2′,3′]cyclopenta [1′,2′:3,4]furo [2,3-b]pyrrol-8-yl benzoate], for which the viability at 50 µM in test [1] (A549, 48 h) is 61.1%; in the test on A549 cells (A549, 48 h), 54%; with Jurkat cells (setting [2]), 68.2%.

For the compound `COc1ccc(CN2C(=O)[C@H](OC(=O)c3ccccc3)[C@@]34[C@@H]2OC(=O)[C@@]32CC(=O)O[C@H]2C[C@@]4(O)C(C)(C)C)c(OC)c1` [XBB-018, (3aS,5aS,8R,8aS,9R,10aS)-6-(2,4-dimethoxy-benzyl-9-(tert-butyl)-9-hydroxy-2,4,7-trioxooctahydro-4H,9H-furo [3″,2″:2′,3′]cyclopenta [1′,2′:3,4]furo [2,3-b]pyrrol-8-yl benzoate], the viability at 50 µM was 94.5% in test [1] (A549, 48 h); 86.5% in the test on A549 cells (setting [3]); 102% with Jurkat cells (setting [4]).

As for `CC(C)(C)[C@]1(O)C[C@@H]2OC(=O)C[C@@]23C(=O)O[C@@H]2N(N)C(=O)[C@H](O)[C@]213` [JW072, (3aS,5aS,8R,8aS,9R,10aS)-6-amino-9-(tert-butyl)-8,9-dihydroxytetrahydro-4H,9H-furo [3″,2″:2′,3′]cyclopenta [1′,2′:3,4]furo [2,3-b]pyrrole-2,4,7(3H,8H)-trione], the viability at 50 µM in test [1] came to 100%; with A549 cells (A549 cells, 50 uM, 48 h, CCK-8), 103%; in the test on Jurkat cells (Jurkat cells, 50 uM, CCK-8, read-out: % Viability (50 uM, 48 h) Jurkat), 97.2%.

Consider `CC(C)(C)OC(=O)Nc1ccc(N2C(=O)[C@H](OC(=O)c3ccccc3)[C@@]34[C@@H]2OC(=O)[C@@]32CC(=O)O[C@H]2C[C@@]4(O)C(C)(C)C)cc1` [XBB-036], for which the viability at 50 µM in test [1] (A549, 48 h) was found to be 70.6%; with A549 cells (setting [3]), 52.4%; with Jurkat cells (setting [4]), 88.8%.

For `CC(C)(C)[C@]1(O)C[C@@H]2OC(=O)C[C@@]23C(=O)O[C@@H]2N(C4COC4)C(=O)[C@H](OC(=O)c4ccccc4)[C@]213` [DW182, (3aS,5aS,8R,8aS,9R,10aS)-9-(tert-butyl)-9-hydroxy-6-(oxetan-3-yl)-2,4,7-trioxooctahydro-4H,9H-furo [3″,2″:2′,3′]cyclopenta [1′,2′:3,4]furo [2,3-b]pyrrol-8-yl benzoate], the viability at 50 µM in test [1] (A549, 48 h) is 107%; in the test with A549 cells (setting [3]), 114%; in the test on Jurkat cells (setting [4]), 101%.

For `CC(C)(C)[C@]1(O)C[C@@H]2OC(=O)C[C@@]23C(=O)O[C@@H]2N(CC4CCN(C(=O)c5ccc6c(c5)OCCO6)CC4)C(=O)[C@H](OC(=O)c4ccccc4)[C@]213` [XBB-045, (3aS,5aS,8R,8aS,9R,10aS)-9-(tert-butyl)-6-((1-(2,3-dihydrobenzo[b][1,4]dioxine-6-carbonyl)piperidin-4-yl)methyl)-9-hydroxy-2,4,7-trioxooctahydro-4H,9H-furo [3″,2″:2′,3′]cyclopenta [1′,2′:3,4]furo[2,3-b]pyrrol-8-yl benzoate], the viability at 50 µM in test [1] (A549, 48 h) came to 85.9%; with A549 cells (setting [3]), 87%; with Jurkat cells (setting [4]) it was 84.8%.

Turning to `COc1cccc(N2C(=O)[C@H](OC(=O)c3ccccc3)[C@@]34[C@@H]2OC(=O)[C@@]32CC(=O)O[C@H]2C[C@@]4(O)C(C)(C)C)c1` [JW092, (3aS,5aS,8R,9R,10aS)-9-(tert-butyl)-9-hydroxy-6-(3-methoxyphenyl)-2,4,7-trioxodecahydrofuro [3″,2″:2′,3′]cyclopenta [1′,2′:3,4]furo [2,3-b]pyrrol-8-yl benzoate], the viability at 50 µM in test [1] (A549, 48 h) is 61.5%; with A549 cells (setting [3]), 53.7%; with Jurkat cells (setting [4]), 69.3%.

As to `C=C(C)[C@@]1(C)C[C@@H]2OC(=O)C[C@@]23C(=O)O[C@@H]2OC(=O)[C@H](OC(C)=O)[C@]213` [XBB-009], the viability at 50 µM was found to be 105% in test [1]; 103% in the test on A549 cells (A549, 48 h); 107% with Jurkat cells (setting [2]).
